Where a name gives a salt, the structure may show the parent alone.
What was measured:
[1] = tested on: ISC-enriched organoids; assay: Primary screen, 384-well 2.5-D organoid differentiation (ENR+CD, 6 days): carbachol-induced lysozyme secretion (LYZ.S); assay type: cell-based, murine; details: ENR+CD, 6 days, FC vs plate median
From the text: (§1) High-throughput screening.

[2] = tested on: ISC-enriched organoids; assay: Primary screen, 384-well 2.5-D organoid differentiation (ENR+CD, 6 days): basal lysozyme secretion (LYZ.NS); assay type: cell-based, murine; details: for Dose.FC.LYZ.NS: ENR+CD, 6 days, FC vs plate median; for Z.LYZ.NS: standard z score of FC
From the text: as §1

[3] = tested on: ISC-enriched organoids; assay: Primary screen, 384-well 2.5-D organoid differentiation (ENR+CD, 6 days, Target Selective Inhibitor Library, vs whole-plate median): ATP (CellTiter-Glo 3D, CTG); details: for Dose.FC.CTG: ENR+CD, 6 days, FC vs plate median; for Z.CTG: standard z score of FC

| SMILES | Dose.FC.LYZ.S ([1]; Dose 0.08 uM) [log 2 fold change] | Dose.FC.LYZ.S ([1]; Dose 0.40 uM) [log 2 fold change] | Dose.FC.LYZ.S ([1]; Dose 2.00 uM) [log 2 fold change] | Dose.FC.LYZ.S ([1]; Dose 10.00 uM) [log 2 fold change] | Dose.FC.LYZ.NS ([2]; Dose 0.08 uM) [log 2 fold change] | Z.LYZ.NS ([2]; Dose 0.08 uM) | Dose.FC.LYZ.NS ([2]; Dose 0.40 uM) [log 2 fold change] | Z.LYZ.NS ([2]; Dose 0.40 uM) | Dose.FC.LYZ.NS ([2]; Dose 2.00 uM) [log 2 fold change] | Z.LYZ.NS ([2]; Dose 2.00 uM) | Dose.FC.LYZ.NS ([2]; Dose 10.00 uM) [log 2 fold change] | Z.LYZ.NS ([2]; Dose 10.00 uM) | Dose.FC.CTG ([3]; Dose 0.08 uM) [log 2 fold change] | Z.CTG ([3]; Dose 0.08 uM) | Dose.FC.CTG ([3]; Dose 0.40 uM) [log 2 fold change] | Z.CTG ([3]; Dose 0.40 uM) | Dose.FC.CTG ([3]; Dose 2.00 uM) [log 2 fold change] | Z.CTG ([3]; Dose 2.00 uM) | Dose.FC.CTG ([3]; Dose 10.00 uM) [log 2 fold change] | Z.CTG ([3]; Dose 10.00 uM) |
| --- | --- | --- | --- | --- | --- | --- | --- | --- | --- | --- | --- | --- | --- | --- | --- | --- | --- | --- | --- | --- |
| CC(C)Oc1ccc(-c2cnc3c(-c4ccnc5ccccc45)cnn3c2)cc1 [DMH1] | 0.078 | 0.054 | 0.035 | −0.092 | 0.018 | 0.155 | 0.026 | 0.231 | 0.014 | 0.124 | −0.075 | −0.657 | −0.031 | −0.075 | −0.079 | −0.188 | −0.002 | −0.004 | −0.001 | −0.003 |
| Cc1ccc2c(=O)c3cccc(CC(=O)O)c3oc2c1C [DMXAA (Vadimezan)] | −0.091 | −0.009 | −0.094 | −0.118 | −0.007 | −0.065 | −0.036 | −0.317 | −0.038 | −0.334 | −0.031 | −0.271 | −0.568 | −1.357 | −0.629 | −1.502 | −0.477 | −1.139 | −0.230 | −0.550 |
| CC(C)(C)c1nc(-c2cccc(NS(=O)(=O)c3c(F)cccc3F)c2F)c(-c2ccnc(N)n2)s1 [Dabrafenib (GSK2118436)] | 0.236 | 0.103 | 0.019 | −0.384 | 0.095 | 0.830 | 0.049 | 0.427 | −0.001 | −0.006 | −0.250 | −2.178 | −0.134 | −0.320 | 0.011 | 0.026 | −0.279 | −0.667 | −0.800 | −1.911 |
| CCC(CC)CC1(C(=O)Nc2ccccc2SC(=O)C(C)C)CCCCC1 [Dalcetrapib (JTT-705, RO4607381)] | 0.049 | 0.104 | 0.098 | −0.113 | 0.055 | 0.475 | −0.037 | −0.324 | −0.034 | −0.296 | −0.074 | −0.643 | 0.112 | 0.268 | −0.006 | −0.014 | 0.079 | 0.188 | 0.136 | 0.324 |
| COc1cccc2c1C(=O)c1c(O)c3c(c(O)c1C2=O)C[C@@](O)(C(C)=O)C[C@@H]3O[C@H]1C[C@H](N)[C@H](O)[C@H](C)O1 [Daunorubicin HCl] | −0.096 | −0.329 | −0.343 | −0.374 | −0.136 | −1.188 | −0.241 | −2.099 | −0.262 | −2.280 | −0.260 | −2.262 | −0.467 | −1.115 | −0.601 | −1.436 | −0.817 | −1.950 | −1.100 | −2.628 |
| C[C@]12C=CC(=O)N[C@@H]1CC[C@@H]1[C@@H]2CC[C@]2(C)[C@@H](C(=O)Nc3cc(C(F)(F)F)ccc3C(F)(F)F)CC[C@@H]12 [Dutasteride] | 0.001 | −0.054 | −0.074 | −0.151 | 0.065 | 0.568 | 0.006 | 0.052 | −0.105 | −0.915 | −0.092 | −0.799 | 0.057 | 0.137 | −0.266 | −0.636 | −0.098 | −0.234 | −0.057 | −0.137 |
| CCn1c2ccccc2c2cc(Nc3ccnc(NCCCN4CCOCC4)n3)ccc21 [EHop-016] | 0.091 | 0.012 | −0.011 | −0.299 | 0.177 | 1.537 | 0.035 | 0.302 | 0.029 | 0.252 | −0.203 | −1.769 | 0.081 | 0.193 | 0.062 | 0.147 | 0.088 | 0.211 | −0.757 | −1.808 |
| COc1cccc(C=NCCN=Cc2cccc(OC)c2[O-])c1[O-].[Cl-].[Mn+3] [EUK 134] | 0.025 | 0.057 | −0.034 | −0.132 | 0.068 | 0.594 | 0.003 | 0.026 | 0.028 | 0.247 | −0.085 | −0.741 | −0.015 | −0.035 | −0.162 | −0.387 | 0.091 | 0.217 | −0.024 | −0.057 |
